Measurements taken from US20050214385A1, “Chromium/biotin treatment of dyslipidemia and diet-induced post prandial hyperglycemia” (priority 2001, published 2005).
Values joined by “and” are separate entries in the source; they are usually repeats but may differ in a detail not shown here. Identical values can stand only once. Like-named read-outs stand apart in the source and are kept apart here. Blank lines part the entries; values can stand above or below the compound they belong to.

What was measured:
[1] = test system: JCR rat; assay: Lipid levels in JCR rats (chromium picolinate + biotin animal study); assay type: in vivo; design: Cholesterol / HDL-ch: unit not given here
Protocol: In order to test the effects of chromium and biotin, alone and in combination, on insulin sensitivity, a rodent model of “Syndrome X” was employed. Specifically, the JCR rat was utilized as it is a well-established model of obesity and insulin resistance. […] After a baseline phase where accurate weights, body composition, and food intake were assessed, the animals were randomized to either control, CrPic alone, biotin alone, or CrPic/Biotin (See FIG. 5). Animals were weighed weekly and nutrients were given via daily water feeding at a specified dose/kg body weight. A 12-week period of daily treatment of animals was accomplished. […] Specifically, CrPic versus control solutions were given in hyperinsulinemic, insulin-resistant, obese JCR rats. The study was initiated on animals at approximately 4 months of age, and animals were treated specifically for three months. […] 9). […] The improvement in insulin sensitivity was associated with a reduction in total. cholesterol levels compared to lean animals (See, e.g., Table 2, and FIGS. 10 & 11). The effect of the combination of chromium and biotin on lipid levels in the animal study is detailed in Table 2. Specifically, the effect of chromium and biotin on cholesterol levels, high density lipid cholesterol (HDL-ch) levels, and triglyceride levels are recorded in Table 2.

[2] = test system: glycogen synthetase (GS) mRNA; assay: Glycogen synthetase (GS) mRNA expression in HSMC; assay type: cell-based, human; conditions: CrPic 10 ng/ml, biotin 10 pm, FIG. 4B
Protocol: To evaluate the cellular mechanism by […] biotin enhance glycogen synthesis, glycogen synthetase (“GS”) mRNA and glycogen synthesis were assessed. HSMC was incubated with CrPic at 10 ng/ml, biotin at 10 pm, and both CrPic and biotin. […] When evaluating GS mRNA levels, chromium increased gene expression of GS by 26%, biotin by 15%, and the combination by 33%. […] RNA Preparation: Total RNA from the skeletal muscle biopsy was isolated using guanium […], phenol-chloroform extraction, and alcohol precipitation. RNA sample was quantified by spectrophotometer. The absorption ratio (260:280 nm) was between 1.8 to 2.0 for all preparations and the integrity of the RNA was verified on agarose gel colored with ethidium bromide. For RT-PCR, fresh isolated total RNA was used. GS mRNA Level Analysis: GS mRNA levels were analyzed using one-step RT-PCR kits (Clontech Laboratories, Inc., Palo Alto, Calif.). GS first-strand CDNA synthesis was performed from 1 μh of total RNA with 1×[…] plus enzyme mix in 40 mM Tricine, 20 mM Kcl, 3 mM MgCl2, 3.75 ug/ml BSA, 0.2 mM deoxynucleoside triphosphates, 400 pmol of oligo(dt) primer, and 200 pm GS primers (Sense [NT], antisense [NT]) in a final volume of 50 μl. The reaction mixtures were subjected to incubations for 60 min. at 50° C. in the Eppendorf Master gradient cycler (Westbury, N.Y.). […] The band densities were evaluated (Alpha Imager 2000, San Leandro, Calif.). […]

[3] = test system: JCR rat; assay: Intraperitoneal glucose tolerance test / glucose disposal in JCR rats; assay type: in vivo; conditions: for Glucose Disposal: individual rat, 12 weeks daily treatment via water; for Glucose Disposal, value per treatment group: mean per treatment, 12 weeks
Protocol: In order to test the effects of chromium and biotin, alone and in combination, on insulin sensitivity, a rodent model of “Syndrome X” was employed. Specifically, the JCR rat was utilized as it is a well-established model of obesity and insulin resistance.
After a baseline phase where accurate weights, body composition, and food intake were assessed, the animals were randomized to either control, CrPic alone, biotin alone, or CrPic/Biotin (See FIG. 5). Animals were weighed weekly and nutrients were given via daily water feeding at a specified dose/kg body weight. A 12-week period of daily treatment of animals was accomplished.
At specified time points during the study, glucose and insulin assessments were made. Specific assessments of carbohydrate metabolism were determined using an intraperitoneal glucose tolerance test and an insulin tolerance test. Animals were studied at 6 and 12 weeks with randomization. The specific metabolic testing was as follows:
Following baseline glucose and insulin measurements, 1.5 mg D50W per gram of body weight were given intraperitoneally. Tailsticks were initiated at 30, 60, 90, and 120 minutes following administration of glucose. The areas under curve for insulin and glucose were assessed. Eight animals in each group at 12 weeks were studied. Table 1 details the amount of glucose disposal for animals treated with CrPic and/or biotin at various dosages. Note, “L” represents the lean control; “O-contr” are the obese control rats; “LB” connotes low biotin treatments; “HB” represents high biotin treatments; “LC” and “HC” represent low and high doses of chromium, respectively. FIG. 6 is a graphic representation of the results of the IPGTT studies. […]

[4] = test system: JCR rat; assay: Fasting plasma insulin in obese JCR rats; assay type: in vivo; conditions: treated three months, end of study, FIG. 7
Protocol: (§1) At specified time points during the study, glucose and insulin assessments were made. Specific assessments of carbohydrate metabolism were determined using an intraperitoneal glucose tolerance test and an insulin tolerance test. Animals were studied at 6 and 12 weeks with randomization. […] Specifically, CrPic versus control solutions were given in hyperinsulinemic, insulin-resistant, obese JCR rats. The study was initiated on animals at approximately 4 months of age, and animals were treated specifically for three months. […] 9). […] The improvement in insulin sensitivity was associated with a reduction in total. cholesterol levels compared to lean animals (See, e.g., Table 2, and FIGS. 10 & 11). The effect of the combination of chromium and biotin on lipid levels in the animal study is detailed in Table 2. Specifically, the effect of chromium and biotin on cholesterol levels, high density lipid cholesterol (HDL-ch) levels, and triglyceride levels are recorded in Table 2.

[5] = test system: human skeletal muscle culture (HSMC); assay: Glucose uptake in human skeletal muscle culture; assay type: cell-based; conditions: FIG. 2
[6] = test system: diabetic and obese pre-diabetic subjects; conditions: cited from earlier work
[7] = test system: JCR:LA-corpulent rat; conditions: obese, hyperinsulinemic, insulin resistant rodent model; cited from earlier work
[8] = test system: JCR rat; assay: Insulin tolerance test in obese JCR rats; assay type: in vivo; conditions: FIG. 9
Protocol: as §1, with “randomization. The specific metabolic testing was as follows: Following baseline glucose assessment, insulin (5 units per kg body weight) was given intravenously. Repeat glucose assessments occurred at 5, 15, and 30 minute intervals following insulin administration. The rate of glucose disappearance was measured. Again, eight animals in each group at 12 weeks were studied.” for “randomization.”

[9] = rats, oral CrCl3 with NSAID; cited from earlier work
[10] = oral biotin intakes of up to 200 mg daily; cited from earlier work
[11] = test system: Type I and type 2 diabetics; conditions: cited from earlier work
[12] = test system: diabetic KK mice; conditions: high-dose oral or parenteral; cited from earlier work
[13] = test system: streptozotocin-diabetic rats; Otsuka Long-Evans Tokushima Fatty rats; conditions: high-dose oral or parenteral, cited from earlier work
[14] = Month 0, listed as High Chromium
[15] = Month 0, listed as Low Chromium
[16] = Month 1, listed as High Chromium
[17] = Month 1, listed as Low Chromium
[18] = Month 2, listed as High Chromium
[19] = Month 2, listed as Low Chromium
[20] = Month 3, listed as High Chromium
[21] = Month 3, listed as Low Chromium

increase of gene expression of GS (GS mRNA levels) [2]: 26%
Compound: chromium picolinate [CrPic]
Cholesterol [1, 14]: 110 | HDL-ch [1, 14]: 43.1 | Triglyceride [1, 14]: 302 mg/dL | Cholesterol [1, 15]: 109 | HDL-ch [1, 15]: 45.9 | Triglyceride [1, 15]: 319 mg/dL | Cholesterol [1, 16]: 112 | HDL-ch [1, 16]: 43.2 | Triglyceride [1, 16]: 283 mg/dL | Cholesterol [1, 17]: 93 | HDL-ch [1, 17]: 38.6 | Triglyceride [1, 17]: 267 mg/dL | Cholesterol [1, 18]: 120 | HDL-ch [1, 18]: 51.5 | Triglyceride [1, 18]: 221 mg/dL | Cholesterol [1, 19]: 130 | HDL-ch [1, 19]: 43.4 | Triglyceride [1, 19]: 256 mg/dL | Cholesterol [1, 20]: 122 | HDL-ch [1, 20]: 48.1 | Triglyceride [1, 20]: 174 mg/dL | Cholesterol [1, 21]: 137 | HDL-ch [1, 21]: 45.9 | Triglyceride [1, 21]: 242 mg/dL | total cholesterol levels ([1]; obese JCR rats, FIGS. 10 & 11): reduction | Glucose Disposal ([3]; listed as HC): 2.928 mg/dL/min and 3.25 mg/dL/min and 3.224 mg/dL/min and 3.011 mg/dL/min and 2.821 mg/dL/min | Glucose Disposal ([3]; listed as LC): 2.334 mg/dL/min and 2.109 mg/dL/min and 2.066 mg/dL/min | Glucose Disposal, value per treatment group [3]: 2.928 mg/dL/min | glucose response to intraperitoneal glucose tolerance test ([3]; obese JCR rats, FIG. 8A): significantly improved glucose response | insulin response to intraperitoneal glucose tolerance test ([3]; obese rat, FIG. 8B): significantly lowered insulin response | fasting plasma insulin [4]: significantly lower fasting plasma insulin | glucose uptake [5]: enhances glucose uptake | glucose levels ([6]; Chinese diabetics): significantly lowered | insulin levels ([6]; Chinese diabetics): significantly lowered | insulin sensitivity ([6]; obese, pre-diabetic subjects, 1000 μg per day): enhance insulin sensitivity | insulin sensitivity [7]: very robust effect on improving | lipid profiles [7]: very robust effect on improving | Insulin sensitivity, insulin tolerance test [8]: significantly improved

Compound: CC(=O)Oc1ccccc1C(=O)O [aspirin]
Chromium absorption [9]: facilitated

Compound: O=C(O)CCCC[C@@H]1SC[C@@H]2NC(=O)N[C@@H]21 [biotin]
Cholesterol ([1]; Month 0, listed as High Biotin): 106 | HDL-ch ([1]; Month 0, listed as High Biotin): 43.6 | Triglyceride ([1]; Month 0, listed as High Biotin): 289 mg/dL | Cholesterol ([1]; Month 0, listed as Low Biotin): 111 | HDL-ch ([1]; Month 0, listed as Low Biotin): 47.8 | Triglyceride ([1]; Month 0, listed as Low Biotin): 317 mg/dL | Cholesterol ([1]; Month 1, listed as High Biotin): 111 | HDL-ch ([1]; Month 1, listed as High Biotin): 42 | Triglyceride ([1]; Month 1, listed as High Biotin): 292 mg/dL | Cholesterol ([1]; Month 1, listed as Low Biotin): 117 | HDL-ch ([1]; Month 1, listed as Low Biotin): 46.5 | Triglyceride ([1]; Month 1, listed as Low Biotin): 331 mg/dL | Cholesterol ([1]; Month 2, listed as High Biotin): 130 | HDL-ch ([1]; Month 2, listed as High Biotin): 46.8 | Triglyceride ([1]; Month 2, listed as High Biotin): 294 mg/dL | Cholesterol ([1]; Month 2, listed as Low Biotin): 122 | HDL-ch ([1]; Month 2, listed as Low Biotin): 45.8 | Triglyceride ([1]; Month 2, listed as Low Biotin): 272 mg/dL | Cholesterol ([1]; Month 3, listed as High Biotin): 144 | HDL-ch ([1]; Month 3, listed as High Biotin): 46.9 | Triglyceride ([1]; Month 3, listed as High Biotin): 301 mg/dL | Cholesterol ([1]; Month 3, listed as Low Biotin): 118 | HDL-ch ([1]; Month 3, listed as Low Biotin): 47.3 | Triglyceride ([1]; Month 3, listed as Low Biotin): 229 mg/dL | side effects or toxicities [10]: no side effects or toxicities | fasting plasma glucose levels ([11]; Type I diabetics, insulin temporarily discontinued, 16 mg daily oral): lowered fasting plasma glucose levels | pancreatic beta cell function ([11]; poorly-controlled type 2 diabetics, 3 mg three times per day): improved | increase of gene expression of GS (GS mRNA levels) [2]: 15% | Glucose Disposal ([3]; listed as HB): 1.92 mg/dL/min and 2.329 mg/dL/min and 1.879 mg/dL/min and 1.772 mg/dL/min and 1.993 mg/dL/min | Glucose Disposal ([3]; listed as LB): 2.21 mg/dL/min and 2.392 mg/dL/min and 1.876 mg/dL/min and 1.768 mg/dL/min and 1.875 mg/dL/min | Glucose Disposal, value per treatment group [3]: 2.0615 mg/dL/min | oral glucose tolerance [12]: improve oral glucose tolerance | oral glucose tolerance ([13]; pre-diabetic Otsuka Long-Evans Tokushima Fatty rats): improve oral glucose tolerance | oral glucose tolerance ([13]; rats made diabetic with streptozotocin): improve oral glucose tolerance | glucose uptake [5]: chromium alone enhances glucose uptake in contrast to biotin alone
